The experiment has as its target T1, UDP-N-acetylglucosamine--peptide N-acetylglucosaminyltransferase 110 kDa subunit (Homo sapiens) (UniProt O15294).
T1 sequence (whole entry): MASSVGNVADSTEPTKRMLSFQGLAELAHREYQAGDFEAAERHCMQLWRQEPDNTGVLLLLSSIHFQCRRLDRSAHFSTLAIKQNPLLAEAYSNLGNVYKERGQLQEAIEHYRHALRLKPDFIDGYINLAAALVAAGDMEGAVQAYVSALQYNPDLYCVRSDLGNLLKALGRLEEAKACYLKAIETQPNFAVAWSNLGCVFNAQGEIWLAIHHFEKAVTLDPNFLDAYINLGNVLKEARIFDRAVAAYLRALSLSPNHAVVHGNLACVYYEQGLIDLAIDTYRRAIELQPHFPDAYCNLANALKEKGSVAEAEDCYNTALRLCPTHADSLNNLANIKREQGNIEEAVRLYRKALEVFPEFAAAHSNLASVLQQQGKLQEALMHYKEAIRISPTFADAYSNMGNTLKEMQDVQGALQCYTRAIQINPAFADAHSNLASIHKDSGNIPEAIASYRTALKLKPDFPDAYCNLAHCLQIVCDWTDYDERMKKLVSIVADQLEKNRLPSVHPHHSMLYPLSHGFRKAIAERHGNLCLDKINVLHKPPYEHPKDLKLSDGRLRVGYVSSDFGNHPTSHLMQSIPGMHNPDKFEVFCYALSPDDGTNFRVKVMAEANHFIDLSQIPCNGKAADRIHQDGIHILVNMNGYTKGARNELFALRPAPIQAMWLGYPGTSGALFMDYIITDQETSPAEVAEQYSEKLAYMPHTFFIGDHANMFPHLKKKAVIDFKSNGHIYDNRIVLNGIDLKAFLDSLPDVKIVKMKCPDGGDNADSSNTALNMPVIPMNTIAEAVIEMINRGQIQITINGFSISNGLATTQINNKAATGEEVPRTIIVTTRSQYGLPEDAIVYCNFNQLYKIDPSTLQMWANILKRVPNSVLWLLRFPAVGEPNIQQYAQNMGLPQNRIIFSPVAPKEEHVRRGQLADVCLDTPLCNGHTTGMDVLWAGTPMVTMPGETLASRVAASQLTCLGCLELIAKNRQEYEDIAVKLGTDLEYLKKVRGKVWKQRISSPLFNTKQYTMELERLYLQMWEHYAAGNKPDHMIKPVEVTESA
Put plainly: Activity at human OGT by Western blot analysis. (In general: Immunoblotting shows a protein as a band on a membrane.)

The structures appear in SMILES notation. The source made the active and inactive calls. No cut-off for these calls is given here.

With `CC(=O)N[C@H]1[C@@H](OP(=O)(O)OP(=O)(O)OC[C@H]2O[C@@H](n3ccc(=O)[nH]c3=O)[C@H](O)[C@@H]2O)O[C@H](CN=[N+]=[N-])[C@@H](O)[C@@H]1O`, the outcome was Active. The value for `CC(=O)N[C@@H]1[C@@H](O)[C@H](O)[C@@H](CN=[N+]=[N-])O[C@@H]1O` was “Active”.

The record behind these values is ChEMBL document CHEMBL1667854, “6''-Azido-6''-deoxy-UDP-N-acetylglucosamine as a glycosyltransferase substrate” (Bioorg Med Chem Lett, 2011).
